The record followed here is US20240327446A1, “DEUTERATED NUCLEOSIDE COMPOUNDS AND USE THEREOF” (MEDSHINE DISCOVERY INC., priority 2022, published 2024).

As usually defined, the CC50 is the concentration at which the toxic effect on the cells reaches its halfway point.

Molecules are shown by their SMILES. pEC50: −log10 of the molar value.

Series [1] has as its system human coronavirus (HCoV) 229E. Description: In vitro anti-coronavirus activity test, cytopathic effect (CPE) assay. The note with it: MRC5, 72 h, read-out: EC50 (median effective concentration). Type of series: cell-based, human coronavirus (HCoV) 229E in MRC5 cells. Here is the method:
(§1) To detect the in vitro anti-human coronavirus (HCOV) 229E activity of the compound using the cytopathic effect (CPE) assay, and simultaneously evaluate the cytotoxicity of the compound.
(§2) The test compound was prepared as a 20 mM stock solution using DMSO. The initial testing concentration of the test compound was 50 μM, tested at 8 concentrations with 4-fold gradient dilutions, in duplicate wells. The control compound Remdesivir would be provided by WuXi AppTec. Remdesivir would be tested at 8 concentrations with 3-fold gradient dilutions, in duplicate wells.
(§3) MRC5 cells and coronavirus HCoV 229E were purchased from ATCC. MRC5 cells were cultured in EMEM (Sigma) culture medium supplemented with 10% fetal bovine serum (Excell), 1% double antibiotic (Hyclone), 1% L-glutamine (Gibco), and 1% non-essential amino acids (Gibco). […]
(§4) Cells were seeded in a 96-well microplate at a specific density (Table 1) and cultured overnight in a 5% CO2, 37° C. incubator. […] Cell viability was detected using the CellTiter Glo (Promega) cell viability assay kit. […]
Inhibition rate (%)=(test well reading value−average value of virus control)/(average value of cell control−average value of virus control)×100 […]
(In general: Damage to the host cells serves as the signal in cytopathic effect assays.)

The next series in a line: in vitro. The format is cell-based. The note with it: human. As for the experimental part: as §1, §2, §3, §4
Cell viability (%)=(test well reading value−average value of culture medium control)/(average value of cell control−average value of culture medium control)×100 […]

For `[2H][C@@]1(O)[C@H](O)[C@@H](COC(=O)C(C)C)O[C@@]1(C#N)c1ccc2c(N)ncnn12` [Compound 1], in series [1], the pEC50 is 6.66. This compound also came in with a CC50 at 3 days in “in vitro” above 50000 nM.
